Assays:
[1] = test system: PKC; assay: PKC activity assay in flank organ hair follicle homogenate (32P phosphorylation of acetylated-myelin basic protein); format: biochemical, Golden Syrian hamster
Protocol: PKC activity was assayed in hair follicles isolated from flank organs using a commercial assay kit obtained from GIBCO BRL (Gaithersburg, Md.). The assay is based on the phosphorylation (incorporation of ^32 -P into) of acetylated-myelin basic protein. After isolation, the flank organ hair follicles were washed in phosphate-buffered saline and homogenized in a buffer containing 20 mM Tris, pH 7.5, 0.5 mM EDTA, 0.5% Triton X-100, 10 mM β-mercaptoethanol, and 25 μg/each of the protease inhibitors aprotinin and leupeptin. The hair follicle homogenate was added to the PKC reaction mixture at a final concentration of 10-20 μg/assay. The assay also included buffer, H2 O, phospholipid. The assay was performed in the presence or absence of select PKC inhibitors. The reaction mixture volume was 50 μl, the ^32 P-ATP substrate was added in a volume of 10 μl. The reaction proceeded at 32° for 15 minutes, whereupon a 16.3 μL aliquot was removed from the reaction mixture and spotted onto a paper filter. Filters were washed twice in 1% phosphoric acid with gentle shaking for 5 minutes. Filters were then washed twice in H2 O and placed in scintillation vials. ^32 P-Incorporation, a measure of the enzyme activity, was determined using standard liquid scintillation techniques.

[2] = test system: flank organ hair growth; assay: Golden Syrian hamster assay (flank organ hair growth, topical); format: in vivo; conditions: for Hair Mass (mean ± SEM) Treated: treated flank organ; for % Inhibition (of hair growth): vs vehicle-treated side, mean ± SEM
Excerpt: Male intact Golden Syrian hamsters are considered acceptable models for human beard hair growth in that they display oval shaped flank organs, one on each side, each about 8 mm. in major diameter, which grow thick black and coarse hair similar to human beard hair. These organs produce hair in response to androgens in the hamster. To evaluate the effectiveness of a particular PKC inhibitor, the flank organs of each of a group of hamsters are depilated by applying a thioglycolate based chemical depilatory (Surgex). To one organ of each animal 10-25 μl. of vehicle alone once a day is applied, while to the other organ of each animal an equal amount of vehicle containing a PKC inhibitor is applied. After thirteen applications (one application per day for five days a week), the flank organs are shaved and the amount of recovered hair (hair mass) from each is weighed. Percent-reduction of hair growth is calculated by subtracting the hair mass (mg) value of the test compound treated side from the hair mass value of the vehicle treated side; the delta value obtained is then divided by the hair mass value of the vehicle treated side, and the resultant number is multiplied by 100.
The above-described assay will be referred to herein as the "Golden Syrian hamster" assay.

[3] = dose 7.5% in vehicle B, pH 7.5, thirteen applications
[4] = dose 10% in vehicle C, pH 5.5, thirteen applications
[5] = dose 10% in vehicle A, thirteen applications, pH differs per compound (4.0-8.5)

SMILES | Hair Mass (mean ± SEM) Treated [2, 5] | % Inhibition (of hair growth) [2, 5] [%] | also measured
CC1(C)[C@@H](O)CC[C@]2(C)[C@H]3C(=O)C=C4[C@@H]5C[C@@](C)(C(=O)O)CC[C@]5(C)CC[C@@]4(C)[C@]3(C)CC[C@@H]12 [18β-Glycyrrhetinic acid] |  |  | inhibition of PKC activity ([1]; at 500 μM): 52%; Hair Mass (mean ± SEM) Treated [2, 3]: 1.07 ± .10 mg; % Inhibition (of hair growth) [2, 3]: 44 ± 6%
COc1cc(/C=C/C(=O)CC(=O)/C=C/c2ccc(O)c(OC)c2)ccc1O [Curcumin] |  |  | Hair Mass (mean ± SEM) Treated [2, 4]: 0.55 ± .11 mg; % Inhibition (of hair growth) [2, 4]: 68 ± 5%
CC1(C)[C@@H](O[C@H]2O[C@H](C(=O)O)[C@@H](O)[C@H](O)[C@H]2O[C@@H]2O[C@H](C(=O)O)[C@@H](O)[C@H](O)[C@H]2O)CC[C@]2(C)[C@H]3C(=O)C=C4[C@@H]5C[C@@](C)(C(=O)O)CC[C@]5(C)CC[C@@]4(C)[C@]3(C)CC[C@@H]12 [Glycyrrhetinic acid glycoside] | 0.94 ± .17 mg | 46 ± 10 | inhibition of PKC activity ([1]; at 200 μM): ~100%
CC1CNCCN1S(=O)(=O)c1cccc2cnccc12 (stereo not drawn) [H-7, 1(5-isoquinolinylsulfonyl)-2-methylpiperazine] | 0.81 ± .08 mg | 54 ± 3 | inhibition of PKC activity ([1]; at 200 μM): 86%
CN(C)CCCN1c2ccccc2CCc2ccccc21 [Imipramine] | 0.94 ± .18 mg | 38 ± 5 | 
CCCCCCCCCCCCCCCC(=O)OC[C@H](O)[C@H]1OC(=O)C(O)=C1O [L-Ascorbic acid 6-palmitate] | 1.48 ± .14 mg | 46 ± 5 | 
Cc1ccc(N(CC2=NCCN2)c2cccc(O)c2)cc1 [Phentolamine] | 1.61 ± .22 mg | 19 ± 9 | 
CSc1ccc2c(c1)N(CCC1CCCCN1C)c1ccccc1S2 (stereo not drawn) [Thioridazine] | 0.74 ± .07 mg | 68 ± 4 | 
CN1CCN(CCCN2c3ccccc3Sc3ccc(C(F)(F)F)cc32)CC1 [Trifluoperizine] | 1.03 ± .16 mg | 56 ± 6 | inhibition of PKC activity ([1]; at 500 μM): 42%
COc1ccc(CCN(C)CCCC(C#N)(c2ccc(OC)c(OC)c2)C(C)C)cc1OC (stereo not drawn) [Verapamil] | 0.43 ± .05 mg | 69 ± 5 | 

Reference: patent publication US5554608A, “Inhibition of hair growth” (priority 1994, dated 1996)
